Values quoted from earlier work as cited in patent US9820956B2, “Compositions and methods for treating metabolic disorders” (PreKUlab, Ltd., priority 2003, dated 2017).

Test system: LNAA transport system in the BBB
Conditions: absolute Km at BBB, neutral amino acid system; read-out: Km

Km | SMILES
150 µM | CC(C)C[C@H](N)C(=O)O [Leu, leucine]
190 µM | CSCC[C@H](N)C(=O)O [Met, methionine]
120 µM | N[C@@H](Cc1ccccc1)C(=O)O [Phe, phenylalanine]
730 µM | C[C@@H](O)[C@H](N)C(=O)O [Threo]
160 µM | N[C@@H](Cc1ccc(O)cc1)C(=O)O [Tyr, tyrosine]
630 µM | CC(C)[C@H](N)C(=O)O [Val, valine]
330 µM | CC[C@H](C)[C@H](N)C(=O)O [iLeu, isoleucine]

SMILES | Km
N[C@@H](Cc1c[nH]c2ccccc12)C(=O)O [Trp, tryptophan] | 190 µM

Same assay, conditions: apparent Km at BBB in presence of competing LNAAs; LNAA's; read-out: Km(app)

Km | SMILES
530 µM | CC(C)C[C@H](N)C(=O)O [Leu, leucine]
770 µM | CSCC[C@H](N)C(=O)O [Met, methionine]
450 µM | N[C@@H](Cc1ccccc1)C(=O)O [Phe, phenylalanine]
3000 µM | C[C@@H](O)[C@H](N)C(=O)O [Threo]
580 µM | N[C@@H](Cc1ccc(O)cc1)C(=O)O [Tyr, tyrosine]
2500 µM | CC(C)[C@H](N)C(=O)O [Val, valine]
1300 µM | CC[C@H](C)[C@H](N)C(=O)O [iLeu, isoleucine]

SMILES | Km
N[C@@H](Cc1c[nH]c2ccccc12)C(=O)O [Trp, tryptophan] | 710 µM

Test system: BBB transport system for basic amino acids
Conditions: absolute Km at BBB, basic amino acids; read-out: Km

SMILES | Km
N=C(N)NCCC[C@H](N)C(=O)O [Arg, arginine] | 90 µM
N[C@@H](Cc1c[nH]cn1)C(=O)O [His, histidine] | 280 µM
NCCCC[C@H](N)C(=O)O [Lys, lysine] | 100 µM

Same assay, conditions: apparent Km at BBB; basic aa's; read-out: Km(app)

SMILES | Km
N=C(N)NCCC[C@H](N)C(=O)O [Arg, arginine] | 400 µM
N[C@@H](Cc1c[nH]cn1)C(=O)O [His, histidine] | 1100 µM
NCCCC[C@H](N)C(=O)O [Lys, lysine] | 250 µM

Test system: BBB transport system for acidic amino acids
Conditions: not given

Km | SMILES
40 µM | N[C@@H](CCC(=O)O)C(=O)O [Glu]

Test system: intestinal epithelia transport
Conditions: not given

Km | SMILES
6000 µM | N[C@@H](Cc1c[nH]cn1)C(=O)O [His, histidine]
2000 µM | CC(C)C[C@H](N)C(=O)O [Leu, leucine]
5000 µM | CSCC[C@H](N)C(=O)O [Met, methionine]
1000 µM | N[C@@H](Cc1ccccc1)C(=O)O [Phe, phenylalanine]
3000 µM | CC(C)[C@H](N)C(=O)O [Val, valine]

Test system: Phe transport in Caco-2 cells
Conditions: 10 μM Phe, 1 mM of each competing amino acid, Caco-2 monolayers

SMILES | % inhibition of Phe transport
N[C@@H](Cc1c[nH]cn1)C(=O)O [His, histidine] | 33%
CC(C)C[C@H](N)C(=O)O [Leu, leucine] | 55%
NCCCC[C@H](N)C(=O)O [Lys, lysine] | 50%
N[C@@H](Cc1c[nH]c2ccccc12)C(=O)O [Trp, tryptophan] | 36%
N[C@@H](Cc1ccc(O)cc1)C(=O)O [Tyr, tyrosine] | 45%

Same assay, conditions: Caco-2

SMILES | inhibition of Phe transport in human intestinal epithelial cells (in words)
CC(C)C[C@H](N)C(=O)O [Leu, leucine] | strong inhibitor
NCCCC[C@H](N)C(=O)O [Lys, lysine] | strong inhibition

Same assay, conditions: Caco-2, measured by Hidalgo; read-out: Km for Phe at the intestinal cell transport system

SMILES | Km
N[C@@H](Cc1ccccc1)C(=O)O [Phe, phenylalanine] | 560 µM
